The values below are quoted from earlier work in PubChem BioAssay AID1259409 (Chemical Carcinogenesis Research Information System (CCRIS), 2018).

The data set relates to rodent chemically induced tumor inhibition, incidence and multiplicity. Nature of the data set: CCRIS tumor inhibitor studies. Particulars: Carcinogen: DIMETHYLNITROSAMINE, 62-75-9, Route [Inhibitor]: SUBCUTANEOUS, Species: RAT, Strain/Sex: STRAIN-CD/MALE, Dose [Carcinogen]: 30 MG/KG IN DISTILLED WATER ONCE, Promoter: NONE USED.

Consider `CCCCC(=O)O[C@H]1CC[C@H]2[C@@H]3CCc4cc(O)ccc4[C@H]3CC[C@]12C`, for which the “tumour outcome (control, treated, inhibition, significance)” value runs as follows: (Dose [Inhibitor]: 1 MG IN CASTOR OIL ADMINISTERED TO IMMATURE RATS 1/4 WK FOR LIFE BEGINNING 100 D POST CARCINOGEN DOSE (STUDY DURATION: 1, Target Tissue: Type of Lesion: KIDNEY TUBULE: ADENOMA) 15/28 (54%), 9/25 (36%), 33%, not calculated; (Dose [Inhibitor]: 1 MG IN CASTOR OIL ADMINISTERED TO IMMATURE RATS 1/4 WK FOR LIFE BEGINNING 100 D POST CARCINOGEN DOSE (STUDY DURATION: 1, Target Tissue: Type of Lesion: KIDNEY: MESENCHYMAL TUMOR) 16/28 (57%), 14/25 (56%), 2%, not significant; (Dose [Inhibitor]: 1 MG IN CASTOR OIL ADMINISTERED TO IMMATURE RATS 1/4 WK FOR LIFE BEGINNING 100 D POST CARCINOGEN DOSE (STUDY DURATION: 1, Target Tissue: Type of Lesion: KIDNEY: TRANSITIONAL CELL TUMOR) 1/28 (4%), 0/25 (0%), 100%, not significant; (Dose [Inhibitor]: 1 MG IN CASTOR OIL ADMINISTERED TO IMMATURE RATS 1/4 WK FOR LIFE BEGINNING 100 D POST CARCINOGEN DOSE (STUDY DURATION: 1, Target Tissue: Type of Lesion: LUNG: ALVEOGENIC TUMOR) 19/28 (68%), 6/25 (24%), 65%, p<0.001; (Dose [Inhibitor]: 1 MG IN CASTOR OIL ADMINISTERED TO MATURE RATS 1/4 WK FOR LIFE BEGINNING 100 D POST CARCINOGEN DOSE (STUDY DURATION: 140, Target Tissue: Type of Lesion: KIDNEY TUBULE: ADENOMA) 16/26 (62%), 18/28 (64%), -3%, not significant; (Dose [Inhibitor]: 1 MG IN CASTOR OIL ADMINISTERED TO MATURE RATS 1/4 WK FOR LIFE BEGINNING 100 D POST CARCINOGEN DOSE (STUDY DURATION: 140, Target Tissue: Type of Lesion: LUNG: ALVEOGENIC TUMOR) 13/26 (50%), 3/28 (11%), 78%, p<0.05.
